Laboratory results published in ChEMBL document CHEMBL5352397, “Exploring gabosine and chlorogentisyl alcohol derivatives from a marine-derived fungus as EcGUS inhibitors with informatic assisted approaches” (Eur J Med Chem, 2022).
The source made the active and inactive calls. The calls are words filed in the database; no cut-off is given here.

Assays:
[1] = molecular target: Beta-glucuronidase (Escherichia coli (strain K12)) (UniProt P05804); test: Non-competitive inhibition of Escherichia coli beta-glucuronidase assessed as reduction of p-nitrophenol release using beta-PNPG as substrate at 10 uM incubated for 30 mins by Spectra max microplate reader analysis relative to control
Beta-glucuronidase [2] = molecular target: T1, Beta-glucuronidase (Escherichia coli (strain K12), UniProt P05804); test: Non-competitive inhibition of Escherichia coli beta-glucuronidase assessed as inhibition constant using beta-PNPG as substrate incubated for 30 mins by Lineweaver-Burk plot analysis
[3] = Antiproliferative activity against human U266B cells assessed as cell viability at 20 uM incubated for 48 hrs by MTT assay; type: functional; conditions: read-out: Activity
NAMALVA = test: Antiproliferative activity against human NAMALVA cells assessed as cell viability at 20 uM incubated for 48 hrs by MTT assay; type: functional; conditions: read-out: Activity
Beta-glucuronidase [4] = molecular target: T1, Beta-glucuronidase; test: Non-competitive inhibition of Escherichia coli beta-glucuronidase assessed as reduction of p-nitrophenol release using beta-PNPG as substrate incubated for 30 mins by Spectra max microplate reader analysis
[5] = molecular target: Beta-glucuronidase (Escherichia coli (strain K12)) (UniProt P05804); test: Inhibition of Escherichia coli beta-glucuronidase assessed as reduction of p-nitrophenol release using beta-PNPG as substrate at 10 uM incubated for 30 mins by Spectra max microplate reader analysis relative to control
Beta-glucuronidase [6] = molecular target: T1, Beta-glucuronidase; test: Inhibition of Escherichia coli beta-glucuronidase assessed as inhibition constant using beta-PNPG as substrate incubated for 30 mins by Lineweaver-Burk plot analysis
[7] = molecular target: Beta-glucuronidase (Escherichia coli (strain K12)) (UniProt P05804); test: Inhibition of Escherichia coli beta-glucuronidase using beta-PNPG as substrate at 2 to 8 uM incubated for 30 mins by Lineweaver-Burk plot analysis; conditions: dose 2-8 µM
Beta-glucuronidase [8] = molecular target: T1, Beta-glucuronidase; test: Inhibition of Escherichia coli beta-glucuronidase assessed as reduction of p-nitrophenol release using beta-PNPG as substrate incubated for 30 mins by Spectra max microplate reader analysis
[9] = molecular target: Beta-glucuronidase (Escherichia coli (strain K12)) (UniProt P05804); test: Inhibition of Escherichia coli beta-glucuronidase using beta-PNPG as substrate at 50 to 100 uM incubated for 30 mins by Lineweaver-Burk plot analysis; conditions: dose 50-100 µM

T1 sequence (P05804 whole entry): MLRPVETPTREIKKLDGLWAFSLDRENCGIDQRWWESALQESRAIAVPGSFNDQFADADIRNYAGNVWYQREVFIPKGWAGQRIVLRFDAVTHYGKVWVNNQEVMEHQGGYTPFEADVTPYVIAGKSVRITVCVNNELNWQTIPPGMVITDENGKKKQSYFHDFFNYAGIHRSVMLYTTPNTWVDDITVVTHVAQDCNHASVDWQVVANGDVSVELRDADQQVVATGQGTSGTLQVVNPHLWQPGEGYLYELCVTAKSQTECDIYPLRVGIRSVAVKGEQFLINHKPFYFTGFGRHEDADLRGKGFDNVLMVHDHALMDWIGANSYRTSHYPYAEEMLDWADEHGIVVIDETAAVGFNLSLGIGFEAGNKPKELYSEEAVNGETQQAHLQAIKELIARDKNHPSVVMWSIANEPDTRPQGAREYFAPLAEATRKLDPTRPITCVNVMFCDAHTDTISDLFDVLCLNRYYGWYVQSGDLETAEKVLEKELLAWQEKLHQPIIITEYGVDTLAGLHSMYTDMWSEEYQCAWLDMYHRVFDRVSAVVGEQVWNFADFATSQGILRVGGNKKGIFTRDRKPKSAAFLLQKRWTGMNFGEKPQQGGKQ
Sequence of Beta-glucuronidase (Escherichia coli (strain K12)) (P05804 whole entry, looked up): as the sequence (P05804 whole entry) above

Which inhibition [1] does the source give for `OCc1cc(O)cc(Cl)c1O` here?
Its inhibition is 101%.

And the Ki (Beta-glucuronidase [2])?
The Ki was 580 nM.

What about the viability at 20 µM [3] of the same compound?
The viability at 20 µM was 94.1%.

And the viability at 20 µM (NAMALVA)?
Its viability at 20 µM is 70.4%.

What about the IC50 (Beta-glucuronidase [4]) of the same compound?
The IC50 was 740 nM.

Which viability at 20 µM [3] does the source give for `O=c1[nH]cc(F)c(=O)[nH]1` [FLUOROURACIL] here?
Its viability at 20 µM is 0%.

What about the viability at 20 µM (NAMALVA) of the same compound?
The viability at 20 µM was 11.3%.

Which inhibition [5] does the source give for `C[C@@H]1C[C@@H](O)[C@H](O[C@@H]2[C@@H](O)C=C(Cl)C(=O)[C@]23CCc2cc(O)cc(Cl)c2O3)C[C@@H]1O` here?
Its inhibition is 15.3%.

Which inhibition [5] does the source give for `O=C1C(Cl)=C[C@H](O)[C@@H](O)[C@]12CCc1cc(O)cc(Cl)c1O2` here?
Its inhibition is 49.9%.

With `O=C1C(Cc2cc(O)cc(Cl)c2O)=C[C@H](O)[C@@H](O)[C@@]12CCc1cc(O)c(Cl)c(Cl)c1O2` as the compound, how does the inhibition [5] read?
Its inhibition is 98%.

What about the viability at 20 µM [3] of the same compound?
Its viability at 20 µM is 95%.

What about the Ki (Beta-glucuronidase [6]) of the same compound?
Its Ki is 1090 nM.

What about the viability at 20 µM (NAMALVA) of the same compound?
Its viability at 20 µM is 83.9%.

What about the inhibition [7] of the same compound?
The inhibition was “Active”.

What about the IC50 (Beta-glucuronidase [8]) of the same compound?
Its IC50 is 240 nM.

Which inhibition [5] does the source give for `Cc1cccc(O)c1C(=O)O[C@@H]1C(=O)C(CO)=C[C@@H](O)[C@H]1O` here?
The inhibition was 27.6%.

For `Cc1cc2c(c(=O)o1)C[C@H]1[C@@H](O)[C@H](O)[C@H](O)[C@H]3c4c(cc(C)oc4=O)O[C@]31O2`, which inhibition [5] is on record?
Its inhibition is 5.16%.

Which inhibition [5] does the source give for `C[C@H]1C[C@H](O)[C@@H](O)C[C@H]1OCc1cc(O)cc(Cl)c1O` here?
The inhibition was 92.8%.

And the viability at 20 µM [3]?
Its viability at 20 µM is 115%.

And the Ki (Beta-glucuronidase [6])?
The Ki was 1640 nM.

What about the viability at 20 µM (NAMALVA) of the same compound?
Its viability at 20 µM is 71.6%.

And the IC50 (Beta-glucuronidase [8])?
The IC50 was 630 nM.

With `CCCCOCC1=C[C@@H](O)[C@@H](O)[C@H](O)C1=O` as the compound, how does the inhibition [5] read?
The inhibition was 39.3%.

With `CCC1=C[C@@H](O)[C@@H](O)[C@H](Cl)C1=O` as the compound, how does the inhibition [1] read?
The inhibition was 99.1%.

And the Ki (Beta-glucuronidase [2])?
Its Ki is 1260 nM.

And the viability at 20 µM [3]?
Its viability at 20 µM is 96.3%.

And the viability at 20 µM (NAMALVA)?
The viability at 20 µM was 79.2%.

And the IC50 (Beta-glucuronidase [4])?
The IC50 was 1260 nM.

For `CCCCO[C@@H]1C(=O)C(C)=C[C@@H](O)[C@H]1O`, which inhibition [5] is on record?
The inhibition was 86.5%.

And the viability at 20 µM [3]?
The viability at 20 µM was 109%.

And the Ki (Beta-glucuronidase [6])?
The Ki was 7320 nM.

What about the viability at 20 µM (NAMALVA) of the same compound?
Its viability at 20 µM is 91.7%.

What about the IC50 (Beta-glucuronidase [8]) of the same compound?
The IC50 was 4610 nM.

What does the source list for `O=C(O)[C@@H](O)[C@H]1OC(=O)[C@H](O)[C@H]1O` [D-SACCHARIC ACID 1,4-LACTONE]?
inhibition [5]: 11.6%; inhibition [9]: Active; IC50 (Beta-glucuronidase [8]): 56700 nM

For `Cc1cc2c(c(=O)o1)C[C@H]1C(=O)[C@@H](O)[C@H](O)[C@H](O)[C@H]1O2`, which inhibition [5] is on record?
Its inhibition is 25.6%.

For `Cc1cc(O)c(Cc2cc(O)cc(Cl)c2O)c(=O)o1`, which inhibition [5] is on record?
Its inhibition is 20.1%.

With `CO[C@@H]1[C@@H](O)C=C(Cl)C(=O)[C@]12CCc1cc(O)cc(Cl)c1O2` as the compound, how does the inhibition [5] read?
Its inhibition is 98.4%.

What about the viability at 20 µM [3] of the same compound?
The viability at 20 µM was 84.9%.

And the Ki (Beta-glucuronidase [6])?
The Ki was 2660 nM.

And the viability at 20 µM (NAMALVA)?
The viability at 20 µM was 58.3%.

What about the IC50 (Beta-glucuronidase [8]) of the same compound?
Its IC50 is 1420 nM.

What does the source list for `O=C1C(COCc2cc(O)cc(Cl)c2O)=C[C@@H](O)[C@@H](O)[C@@H]1Cl`?
inhibition [5]: 87.1%; viability at 20 µM [3]: 105%; Ki (Beta-glucuronidase [6]): 860 nM; viability at 20 µM (NAMALVA): 65.1%; IC50 (Beta-glucuronidase [8]): 1910 nM

Which inhibition [5] does the source give for `C[C@H]1C[C@H](O)[C@@H](OCc2cc(O)cc(Cl)c2O)C[C@H]1O` here?
Its inhibition is 91.8%.

What about the viability at 20 µM [3] of the same compound?
Its viability at 20 µM is 7.86%.

And the Ki (Beta-glucuronidase [6])?
Its Ki is 3470 nM.

What about the viability at 20 µM (NAMALVA) of the same compound?
Its viability at 20 µM is -3.03%.

What about the inhibition [7] of the same compound?
Its inhibition is “Active”.

What about the IC50 (Beta-glucuronidase [8]) of the same compound?
The IC50 was 400 nM.

With `O=Cc1cc(O)cc(Cl)c1O` as the compound, how does the inhibition [5] read?
The inhibition was 69%.

Which inhibition [5] does the source give for `O=C1C(Cl)=C[C@H](O)[C@@H](O)[C@@]12CCc1cc(O)cc(Cl)c1O2` here?
The inhibition was 96.5%.

And the viability at 20 µM [3]?
The viability at 20 µM was 79.6%.

And the Ki (Beta-glucuronidase [6])?
The Ki was 1160 nM.

What about the viability at 20 µM (NAMALVA) of the same compound?
The viability at 20 µM was 37%.

What about the IC50 (Beta-glucuronidase [8]) of the same compound?
The IC50 was 2830 nM.

Which inhibition [5] does the source give for `Oc1cc(Cl)c(O)c(COCc2cc(O)cc(Cl)c2O)c1` here?
Its inhibition is 101%.

What about the viability at 20 µM [3] of the same compound?
Its viability at 20 µM is 88.6%.

And the Ki (Beta-glucuronidase [6])?
Its Ki is 710 nM.

What about the viability at 20 µM (NAMALVA) of the same compound?
Its viability at 20 µM is 56.6%.

What about the IC50 (Beta-glucuronidase [8]) of the same compound?
The IC50 was 580 nM.

With `CC1=C[C@@H](O)[C@@H](O)[C@H](Cl)C1=O` as the compound, how does the inhibition [5] read?
Its inhibition is 100%.

What about the viability at 20 µM [3] of the same compound?
The viability at 20 µM was 105%.

What about the Ki (Beta-glucuronidase [6]) of the same compound?
The Ki was 670 nM.

What about the viability at 20 µM (NAMALVA) of the same compound?
The viability at 20 µM was 113%.

What about the IC50 (Beta-glucuronidase [8]) of the same compound?
The IC50 was 1010 nM.

With `COCc1cccc(Cl)c1O` as the compound, how does the inhibition [5] read?
The inhibition was 7.73%.

With `Cc1cc2c(c(=O)o1)C[C@@H]1C(=O)C(Cl)=C[C@H](O)[C@H]1O2` as the compound, how does the inhibition [5] read?
The inhibition was 55.1%.

For `O=C(OCc1cc(O)cc(Cl)c1O)c1cnccc1O`, which inhibition [5] is on record?
The inhibition was 87.9%.

And the viability at 20 µM [3]?
Its viability at 20 µM is 94.9%.

What about the Ki (Beta-glucuronidase [6]) of the same compound?
Its Ki is 1550 nM.

What about the viability at 20 µM (NAMALVA) of the same compound?
Its viability at 20 µM is 39.4%.

And the IC50 (Beta-glucuronidase [8])?
The IC50 was 1950 nM.

Which inhibition [5] does the source give for `C[C@H]1C[C@H](OCc2cc(O)cc(Cl)c2O)[C@@H](O)C[C@H]1O` here?
The inhibition was 92.1%.

And the viability at 20 µM [3]?
Its viability at 20 µM is 77.8%.

What about the Ki (Beta-glucuronidase [6]) of the same compound?
Its Ki is 4270 nM.

What about the viability at 20 µM (NAMALVA) of the same compound?
The viability at 20 µM was 71.7%.

And the IC50 (Beta-glucuronidase [8])?
Its IC50 is 640 nM.

With `O=C1C(Cl)=C[C@H](O)[C@H](O)[C@@]12CCc1cc(O)cc(Cl)c1O2` as the compound, how does the inhibition [5] read?
Its inhibition is 86.3%.

And the viability at 20 µM [3]?
Its viability at 20 µM is 52.6%.

What about the Ki (Beta-glucuronidase [6]) of the same compound?
The Ki was 4430 nM.

What about the viability at 20 µM (NAMALVA) of the same compound?
The viability at 20 µM was -0.33%.

What about the IC50 (Beta-glucuronidase [8]) of the same compound?
Its IC50 is 2150 nM.

For `O=C(O)c1cc(=O)c2ccccc2[nH]1`, which inhibition [5] is on record?
Its inhibition is 10.8%.
